Tests used:
[1] = system: MDA-MB-231 cells; assay: Apoptosis assay (annexin V, flow cytometry); type: cell-based, human; details: dose-dependent; Example 3 numbering
Method: Cell Cycle Assay and Apoptosis Assay: Cell cycle and apoptosis kits (#MCH100106 and #MCH100105, Millipore, Mass.) were used. […] 24 and 48 h after drug treatment, both adherent and floating cells were collected, washed once with PBS and fixed in cold ethanol for at least 4 h before cell cycle analysis. The fixed cells were then washed twice with PBS and resuspended in 200 μL cell cycle detection reagent, incubated for 30 minutes in dark at room temperature. Cell cycle distribution was measured by the Muse Cell Analyzer with Muse™ Cell Cycle. Similarly, MDA-MB-231 cells with the same treatments were prepared for apoptosis assay. After washing with PBS, resuspended cells were incubated with 100 μL PBS containing 1% BSA and 100 μL Annexin V and dead cell detection reagent in dark for 20 minutes at room temperature. Apoptosis was measured immediately using the Muse Cell Analyzer with the Muse™ Apoptosis Program.

[2] = system: AsPC1; assay: MTS cell proliferation assay, AsPC1; type: cell-based, human; details: Homo sapiens, ASPC1, 72 h, read-out: IC50 AsPC1 (Table 4)
Outline: (§1)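 Cells seeded at 2×10^3 cells/well and exposed 72 h to DMSO or 0.01–100 μM STAT3 inhibitor, quadruplicate wells per concentration. Proliferation read by MTS reduction, OD 550 nm after 1 h at 37 °C.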

[3] = system: STAT3 promoter activity in MDA-MB-231 cells; assay: Transient transfection and dual luciferase reporter assay (pSTAT3-Luc); type: cell-based, human; details: 24 h
Method: MDA-MB-231 cells were pre-treated with niclosamide or 11 at different concentrations for 24 h. The STAT3 promoter activity in MDA-MB-231 cells was determined after transient transfecting with pSTAT3-Luc vector.
Transient Transfection and Dual Luciferase Reporter Assays. MBA-MB-231 cells were seeded in 24-well plate at a density of 5×10^4 cells/well in RPMI-1640 medium containing 10% FBS and 1% penicillin-streptomycin. Transient transfections were performed 4 h after plating, using the method described previously (Rees, D. C. et al., 2004; Shen, Q. et al., 2008). Total amount of DNA for transfections was 0.5 μg/well, including pSTAT3-Luc (95%, obtained from Panomics, Cat# LR0077) and internal control vector renilla (5%, from Promega, Madison, Wis., USA). 5 h after transfection, the cells were treated with compound […] for 24 h, then reporter activity was evaluated using dual luciferase reporter assay kit (Promega, Madison, Wis., USA) on an Omega™ Microplate Luminometer (BMG LABTECH Inc., NC, USA). Relative luciferase units were the ratio of the absolute activity of firefly luciferase to that of renilla luciferase. Experiments were conducted with triplicates and results are representatives of at least 3 independent experiments.

[4] = system: MDA-MB-231 xenograft tumors; assay: MDA-MB-231 xenograft tumor growth in nude mice; type: in vivo; details: oral gavage daily for 14 days
[5] = type: in vivo; details: oral gavage 14 days; HJC0152 25 mg/kg, niclosamide 75 mg/kg
Method: Female nude mice at 4 to 6 wk of age were obtained from MDACC ERO facility. The mice were maintained in a barrier unit with 12 hours light-dark switch room and all materials were autoclaved. Freshly harvested MDA-MB-231 cells (2.5×10^6 cells per mouse, resuspended in 100 μl PBS) were injected into the 3rd mammary fat pad of the mice, and then mice were randomly assigned into control and treatment groups (≧6 mice per group). Treatment started when the xenograft mammary tumors reaches a volume of 200 mm^3. […] Mice were monitored daily for general health conditions (body weight, fur coat condition and posture) and toxicity (hair loss, skin rash, abdominal distension). […] Tumor volume was calculated as V=W^2×L/2, where L=longer diameter (mm) and W=width of short diameter (mm). […]
Female nude mice were obtained from MDACC and were used for orthotopic tumor studies at 4 to 6 weeks of age. […] Body weights and tumors volume were measured daily and tumor volume was calculated according to the formula V=0.5×L×W^2, where L=length (mm) and W=width (mm).
Twenty-two female nude mice (8 wks of age) were obtained from MDACC ERC Center. […] Body weights and tumors volume were measured daily and tumor volume calculated using the formula V=0.5×L×W^2, where L=length (mm) and W=width (mm) of xenograft tumors. Signs of toxicity were recorded individually. […]

[6] = system: MDA-MB-231 and MDA-MB-468 cells; assay: Colony formation assay; type: cell-based, human; details: 15 days, starting at 0.625 μM
Method: Colony Formation Assay: MDA-MB-468 and MDA-MB-231 cells were seeded in 6-well plates with a density of 800-3000 cells/well, respectively. […] The culture media with the compounds were changed every 72 h. After two weeks, the wells were washed twice with PBS buffer and 2 mL of 0.01% crystal violet staining buffer was added and incubated for 10 min. The wells were then washed with PBS for 5 min for three times, and allowed to dry. Photographs were then taken and the density of the entire culture well area was digitally measured using the GelCount™ instrument (Oxford Optronix, UK). Experiments were performed in triplicate and the density data were analyzed with one-way ANOVA using GraphPad Prizm 6 software. Error bars represent standard deviation.

[7] = system: Panc-1; assay: MTS cell proliferation assay, Panc-1; type: cell-based, human; details: Homo sapiens, PANC-1, 72 h, read-out: IC50 Panc-1 (Table 4)
Outline: as §1

With `O=C(Nc1ccc([N+](=O)[O-])cc1Cl)c1cc(Cl)ccc1O` [niclosamide, reference compound] the “apoptosis, annexin V (Example 3)” value [1] was “activated apoptosis”, the IC50 [2] was 1.47 µM and the “STAT3 promoter activity at 20 μM, in words” value [3] was “suppressed”. The “reduction in tumor growth, 75 mg/kg” value [4] was 55%, the “toxicity signs in treated mice” value [5] was “No toxicity signs” and the colony formation [6] was “significant suppression of colony formation”. For the same molecule, the IC50 [7] was 1.73 µM.

From patent US9884863B2, “STAT3 inhibitor” (Board of Regents, The University of Texas System, priority 2013, dated 2018)
